Consider 18 compounds from patent US20260200897A1, “4-((5-(3-(4-(PYRIDIN-2-YL)CYCLOPENTYL)-1H-PYRAZOL-3-YL)AMINO)-BENZENESULFONAMIDE DERIVATIVES AND SIMILAR COMPOUNDS AS CDK INHIBITORS FOR THE TREATMENT OF CANCER” (BeOne Medicines I GmbH, priority 2023, published 2026).

Assay [1] has as its target CDK2/Cyclin E1 (Homo sapiens, UniProt P24941). Kind of assay: CDK2/Cyclin E1 TR-FRET biochemical assay, 1 mM ATP. As to conditions: 0.15 μM Rb (Ser780)-biotin substrate, 90 min reaction, Table 2. As for the experimental part:
(§1) Compounds disclosed herein were tested for inhibition of CDK2/Cyclin E1 or CDK1/Cyclin B kinase in an assay based on the time-resolved fluorescence-resonance energy transfer (TR-FRET) methodology. The assay was carried out in 384-well low volume black plates in a reaction mixture containing CDK2/Cyclin E1 or CDK1/Cyclin B1, 1 mM ATP for CDK2/Cyclin E1 and CDK1/Cyclin B1, 0.15 μM Rb (Ser780)-biotin substrate and 0-10 μM compound in buffer containing 50 mM HEPES pH7.0, 0.02% NaN3, 0.01% BSA, 0.1 mM Orthovanadate, 50 mM MgCl2, 1 mM DTT and 0.005% Tween-20. The kinase was incubated with compound for 60 minutes at room temperature and the reaction was initiated by the addition of ATP and Rb (Ser780)-biotin substrate. After reaction at room temperature for 90 minutes, an equal volume of stop/detection solution was added according to the manufacture's instruction (Cisbio Bioassays). The stop/detection solution contained Streptavidin-XL665 and Anti-pRb (Ser780) mAb-Eu Cryptate in Detection buffer (Cisbio Bioassays). Plates were incubated at room temperature for 60 minutes, and the TR-FRET signals (ex337 nm, em665 nm/620 nm) were recorded on a PHERAstar FSX plate reader (BMG Labtech). The inhibition percentage of CDK2/Cyclin E1 or CDK1/Cyclin B1 kinase activity in presence of increasing concentrations of compounds was calculated based on the ratio of fluorescence at 665 nm to that at 620 nm. The IC50 for each compound was derived from fitting the data to the four-parameter logistic equation by Dotmatics.

Assay [2] concerns the target CDK1/Cyclin B1 (Homo sapiens, UniProt P06493). The assay can be described thus: CDK1/Cyclin B1 TR-FRET biochemical assay, 1 mM ATP. As to conditions: 0.15 μM Rb (Ser780)-biotin substrate, 90 min reaction, Table 2. The protocol:
as §1

Some results are limits rather than exact numbers.

Chain of CDK1/Cyclin B1 (P06493 whole entry): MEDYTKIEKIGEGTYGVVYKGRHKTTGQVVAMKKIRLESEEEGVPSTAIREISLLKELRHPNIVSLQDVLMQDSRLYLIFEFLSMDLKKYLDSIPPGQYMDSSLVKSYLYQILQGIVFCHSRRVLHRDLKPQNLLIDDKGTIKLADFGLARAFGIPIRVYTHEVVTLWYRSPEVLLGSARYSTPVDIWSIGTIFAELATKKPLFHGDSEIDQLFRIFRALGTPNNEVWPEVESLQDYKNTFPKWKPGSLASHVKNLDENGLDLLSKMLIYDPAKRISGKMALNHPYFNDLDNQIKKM
Chain of CDK1/Cyclin B1 (P14635 whole entry partner): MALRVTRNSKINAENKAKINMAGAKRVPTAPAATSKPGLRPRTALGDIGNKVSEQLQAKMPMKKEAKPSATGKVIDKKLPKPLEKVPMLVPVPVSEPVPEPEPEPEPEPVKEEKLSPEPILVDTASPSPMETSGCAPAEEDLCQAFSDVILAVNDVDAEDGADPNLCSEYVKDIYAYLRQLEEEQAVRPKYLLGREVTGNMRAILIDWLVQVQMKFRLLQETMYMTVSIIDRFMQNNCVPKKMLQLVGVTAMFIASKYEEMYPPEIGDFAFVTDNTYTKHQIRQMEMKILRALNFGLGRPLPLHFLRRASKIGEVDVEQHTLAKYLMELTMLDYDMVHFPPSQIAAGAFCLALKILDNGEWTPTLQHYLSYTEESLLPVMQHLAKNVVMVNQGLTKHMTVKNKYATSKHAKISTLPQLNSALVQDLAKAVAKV

As a reminder, the IC50 is the concentration that gives 50% inhibition. Higher therefore signals weaker potency. As for `CC(C)c1ccnc(C2CCC(c3cc(Nc4ccc5c(c4F)CNS5(=O)=O)n[nH]3)C2)c1` (stereo not drawn) [Example 122, 4-fluoro-5-((5-(3-(4-isopropylpyridin-2-yl)cyclopentyl)-1H-pyrazol-3-yl)amino)-2,3-dihydrobenzo[d]isothiazole 1,1-dioxide], the IC50 is 72 nM in assay [1] and > 10000 nM in assay [2].
For `CC1(c2cnc(C3CCC(c4cc(Nc5ccc6c(c5F)CNS6(=O)=O)n[nH]4)C3)o2)CC1` (stereo not drawn) [Example 112, 4-fluoro-5-((5-(3-(5-(1-methylcyclopropyl)oxazol-2-yl)cyclopentyl)-1H-pyrazol-3-yl)amino)-2,3-dihydrobenzo[d]isothiazole 1,1-dioxide], in that order: 16 nM and 6850 nM.
For `COc1cccc(C2CCC(c3cc(Nc4cc5c(cc4F)S(=O)(=O)NC5)n[nH]3)C2)n1` (stereo not drawn) [Example 11, 6-fluoro-5-((5-(3-(6-methoxypyridin-2-yl)cyclopentyl)-1H-pyrazol-3-yl)amino)-2,3-dihydrobenzo[d]isothiazole 1,1-dioxide] the same measures were 2760 nM and > 10000 nM.
For `CC(C)(C)c1cccc(C2CCC(c3cc(Nc4ccc5c(c4F)CS(=O)(=O)N5)n[nH]3)C2)n1` (stereo not drawn) [Example 158, 5-((5-(3-(6-(tert-butyl)pyridin-2-yl)cyclopentyl)-1H-pyrazol-3-yl)amino)-4-fluoro-1,3-dihydrobenzo[c]isothiazole 2,2-dioxide] the same measures were 84 nM and 3930 nM.
Regarding `CC(C)(C)c1cnc(C2CCC(c3cc(Nc4ccc5c(c4F)CN=S5(C)=O)n[nH]3)C2)o1` (stereo not drawn) [Example 171, 5-((5-(3-(5-(tert-butyl)oxazol-2-yl)cyclopentyl)-1H-pyrazol-3-yl)amino)-4-fluoro-1-methyl-3H-1λ^4-benzo[d]isothiazole 1-oxide], the IC50 in assay [1] came to 2 nM; in assay [2], 348 nM.
For `Cc1nc(C2CCC(c3cc(Nc4cc5c(cc4F)S(=O)(=O)NC5)n[nH]3)C2)oc1C(C)(C)C` (stereo not drawn) [Example 19, 5-((5-(3-(5-(tert-butyl)-4-methyloxazol-2-yl)cyclopentyl)-1H-pyrazol-3-yl)amino)-6-fluoro-2,3-dihydrobenzo[d]isothiazole 1,1-dioxide], the values for the IC50 in assay [1] and in assay [2] were 43 nM and > 10000 nM, respectively.
For `COc1cccc(C2CCC(c3cc(Nc4ccc5c(c4F)CS(=O)(=O)N5)n[nH]3)C2)n1` (stereo not drawn) [Example 160, 4-fluoro-5-((5-(3-(6-methoxypyridin-2-yl)cyclopentyl)-1H-pyrazol-3-yl)amino)-1,3-dihydrobenzo[c]isothiazole 2,2-dioxide] the same measures were 868 nM and > 10000 nM.
For `CC(C)(C)c1cnc(C2CCC(c3cc(Nc4cc5c(cc4F)S(=O)(=O)NC5)n[nH]3)C2)o1` (single isomer, unassigned) [Example 17a, 5-((5-(3-(5-(tert-butyl)oxazol-2-yl)cyclopentyl)-1H-pyrazol-3-yl)amino)-6-fluoro-2,3-dihydrobenzo[d]isothiazole 1,1-dioxide] the same measures were 3.9 nM and 2090 nM.
For `C=C(C)c1cc(C2CCC(c3cc(Nc4ccc5c(c4F)CS(=O)(=O)N5)n[nH]3)C2)n[nH]1` (stereo not drawn) [Example 151, 4-fluoro-5-((5-(3-(5-(prop-1-en-2-yl)-1H-pyrazol-3-yl)cyclopentyl)-1H-pyrazol-3-yl)amino)-1,3-dihydrobenzo[c]isothiazole 2,2-dioxide] the same measures were 1400 nM and > 10000 nM.
On to `CN1c2ccc(Nc3cc([C@H]4CC[C@@H](c5ncc(C(C)(C)C)o5)C4)[nH]n3)cc2CS1(=O)=O` [Example 141, 5-((5-((1S,3R)-3-(5-(tert-butyl)oxazol-2-yl)cyclopentyl)-1H-pyrazol-3-yl)amino)-1-methyl-1,3-dihydrobenzo[c]isothiazole 2,2-dioxide], for which the IC50 is 0.6 nM in assay [1] and 135 nM in assay [2].
For `CCOC(=O)c1nc(C2CCC(c3cc(Nc4ccc5c(c4F)CNS5(=O)=O)n[nH]3)C2)oc1C(C)C` (stereo not drawn) [Example 115, ethyl 2-(3-(3-((4-fluoro-1,1-dioxido-2,3-dihydrobenzo[d]isothiazol-5-yl)amino)-1H-pyrazol-5-yl)cyclopentyl)-5-isopropyloxazole-4-carboxylate] the same measures were 264 nM and > 10000 nM.
With `COC(=O)c1nc(C2CCC(c3cc(Nc4ccc5c(c4F)CNS5(=O)=O)n[nH]3)C2)oc1C(C)(C)C` (stereo not drawn) [Example 113, methyl 5-(tert-butyl)-2-(3-(3-((4-fluoro-1,1-dioxido-2,3-dihydrobenzo[d]isothiazol-5-yl)amino)-1H-pyrazol-5-yl)cyclopentyl)oxazole-4-carboxylate], the IC50 in assay [1] is 235 nM; in assay [2], > 10000 nM.
For `CC(C)(C)c1cnc(C2CCC(c3cc(Nc4cc5c(cc4F)S(=O)(=O)NC5)n[nH]3)C2)o1` (single isomer, unassigned) [Example 17c, 5-((5-(3-(5-(tert-butyl)oxazol-2-yl)cyclopentyl)-1H-pyrazol-3-yl)amino)-6-fluoro-2,3-dihydrobenzo[d]isothiazole 1,1-dioxide] the same measures were 102 nM and > 10000 nM.
With `Cc1cc(C(C)(C)C)cc(C2CCC(c3cc(Nc4ccc5c(c4F)CS(=O)(=O)C5)n[nH]3)C2)n1` (stereo not drawn) [Example 175, 5-((5-(3-(4-(tert-butyl)-6-methylpyridin-2-yl)cyclopentyl)-1H-pyrazol-3-yl)amino)-4-fluoro-1,3-dihydrobenzo[c]thiophene 2,2-dioxide], the concentration for half-maximal inhibition (IC50) in assay [1] is 439 nM; in assay [2], > 10000 nM.
For `CC(C)(C)c1nnc([C@H]2CC[C@H](c3cc(Nc4ccc5c(c4F)CNS5(=O)=O)n[nH]3)C2)o1` (relative stereo) [Example 97, trans-5-((5-(3-(5-(tert-butyl)-1,3,4-oxadiazol-2-yl)cyclopentyl)-1H-pyrazol-3-yl)amino)-4-fluoro-2,3-dihydrobenzo[d]isothiazole 1,1-dioxide], in that order: 3180 nM and > 10000 nM.
For `CC(C)(C)c1cncc(C2CCC(c3cc(Nc4ccc5c(c4F)CS(=O)(=O)N5)n[nH]3)C2)c1` (stereo not drawn) [Example 162, 5-((5-(3-(5-(tert-butyl)pyridin-3-yl)cyclopentyl)-1H-pyrazol-3-yl)amino)-4-fluoro-1,3-dihydrobenzo[c]isothiazole 2,2-dioxide], in that order: 308 nM and > 10000 nM.
Take `Cn1ncc(C(C)(C)C)c1O[C@@H]1CC[C@H](c2cc(Nc3ccc4c(c3F)CNS4(=O)=O)n[nH]2)C1` (relative stereo) [Example 72, cis-5-((5-(3-((4-(tert-butyl)-1-methyl-1H-pyrazol-5-yl)oxy)cyclopentyl)-1H-pyrazol-3-yl)amino)-4-fluoro-2,3-dihydrobenzo[d]isothiazole 1,1-dioxide]: the IC50 is 5910 nM in assay [1] and > 10000 nM in assay [2].
`CC(C)c1ccnc(C2CCC(c3cc(Nc4ccc5c(c4F)CNS5(=O)=O)n[nH]3)C2)n1` (stereo not drawn) [Example 126, 4-fluoro-5-((5-(3-(4-isopropylpyrimidin-2-yl)cyclopentyl)-1H-pyrazol-3-yl)amino)-2,3-dihydrobenzo[d]isothiazole 1,1-dioxide]: the IC50 in assay [1] came out at 3.9 nM; in assay [2], 669 nM.
